The source of these data is patent US20230302142A1, “Cytotoxic Agents” (priority 2020, published 2023).

The structures appear in SMILES notation.

The test system of one assay is SW620 (Colorectal). The experiment in a line: MTT cytotoxicity assay, SW620. The following applies: Homo sapiens, SW-620, 72 hour incubation. The assay is classed as cell-based. The protocol: (§1) The in vitro cytotoxicity of compounds 16 and 22 were evaluated in a panel of cell lines using the standard MTT assay for a 72 hour incubation period (Table 2). Free payloads produced cytotoxicities in the nanomolar to picomolar range.
(§2) Tumor cell lines were maintained in RPMI1640 medium supplemented with 10% heat-inactivated fetal bovine serum, 2 mM L-glutamine and 1 mM sodium pyruvate. 1800 cells per well were seeded in a volume of 180 μl in a 96-well flat bottom polystyrene plate. The cells were allowed to adhere overnight at 37° C. in a CO2 incubator. Ligands were initially formulated in DMSO, and stocks stored at −80° C. They were then further formulated at lox concentration in RPMI1640 medium. 20 ul of diluted samples were added into each treatment well. On each plate, blank wells with no cells, and untreated wells containing cells, were included. […] Cytotoxicity was evaluated using a tetrazolium salt-based assay, the MTT assay. […] The plate was then read on a plate reader at 540 nm, and percentage cell survival calculated as follows: ((mean absorbance treated wells at concentration x−mean absorbance blank wells)÷(mean absorbance untreated wells at concentration x−mean absorbance blank wells))×100. Data were plotted as concentration in nM vs. % cell survival in Microsoft Excel, and IC50 values (concentration where cell survival is reduced by a half) were determined from the graph.
For orientation: Tetrazolium assays rely on reduction of a dye to a coloured formazan, in cell work by metabolically active cells.

The next assay deals with SW-48 (Colorectal). The experiment in a line: MTT cytotoxicity assay, SW-48. Type of assay: cell-based. The following applies: Homo sapiens, SW48, 72 hour incubation. The procedure: as §1, §2
In the next assay the test system is LIM1215 (Colorectal). The experiment in a line: MTT cytotoxicity assay, LIM1215. Type of assay: cell-based. The following applies: for IC50: LIM1215, MTT assay, 72 hour incubation, HIF1 negative cell-line. The protocol:
as §1
Tumor cell lines were maintained in RPMI1640 medium supplemented with 10% heat-inactivated fetal bovine serum, 2 mM L-glutamine and 1 mM sodium pyruvate. 1800 cells per well were seeded in a volume of 180 μl in a 96-well flat bottom polystyrene plate. The cells were allowed to adhere overnight at 37° C. in a CO2 incubator. Ligands were initially formulated in DMSO, and stocks stored at −80° C. They were then further formulated at lox concentration in RPMI1640 medium. 20 ul of diluted samples were added into each treatment well. On each plate, blank wells with no cells, and untreated wells containing cells, were included. Plates were then cultured at 37° C. in a CO2 incubator for 72 hrs. Cytotoxicity was evaluated using a tetrazolium salt-based assay, the MTT assay. After 72 hours, the supernatant was removed from each well and 200 μl of a sterile filtered 500 μg/ml MTT solution in water added to each well. The plates were then incubated at 37° C. in a CO2 incubator for 4 hrs. The supernatant was then removed and the formazan crystals formed solubilized by adding 150 μl of DMSO to each well. The plate was then read on a plate reader at 540 nm, and percentage cell survival calculated as follows: ((mean absorbance treated wells at concentration x−mean absorbance blank wells)÷(mean absorbance untreated wells at concentration x−mean absorbance blank wells))×100. Data were plotted as concentration in nM vs. % cell survival in Microsoft Excel, and IC50 values (concentration where cell survival is reduced by a half) were determined from the graph.

The next assay relates to A431 (Skin) HIF+. The experiment in a line: MTT cytotoxicity assay, A431. Type of assay: cell-based. The following applies: Homo sapiens, A-431, 72 hour incubation. The procedure:
as §1, §2

The next assay deals with MS1 DNA fragment. The experiment in a line: DNA footprinting (DNase I). The assay is classed as binding. The procedure: The DNA sequence selectivity profile of 16 was investigated using a modification of the previously established DNA footprinting assay. Following an overnight incubation of the ligand-DNA complexes, the mixture was mixed with strand separation buffer containing 10 mM EDTA, 10 mM NaOH, 0.1% bromophenol blue, 80% formamide and incubated at 100° C. for 3 min. The mixture was then immediately cooled on ice and run on an 8% denaturing gel. […] This is in contrast to control molecules (FIG. 2), where indiscriminate binding to the DNA sequence can be observed.
Methods for the preparation of the “MS1” DNA fragment (FIG. 2) have been previously described^[19]. Briefly, the sequence which had been cloned into the BamHI site of pUC18 was obtained by cutting with HindIII and EcoRI. Radiolabelled DNA fragments were prepared by filling in the 3′-end of the HindIII site with [α-^32P]dATP using Klenow DNA polymerase (exo-).
The radiolabelled DNA fragment was separated from the remainder of the plasmid DNA on a 6% non-denaturing polyacrylamide gel. […]
Footprinting reactions were performed as previously described^[20] using the “MS1” DNA fragment, which represents a random DNA sequence. […] After gel purification, the radiolabelled DNA was dissolved in 10 mM Tris HCl pH 7.5 containing 0.1 mM EDTA, at a concentration of about 10 c.p.s per μL as determined on a hand held Geiger counter. […]

In another assay the test system is transcription factors. The experiment in a line: Transcription factor plate array assay. The following applies: HeLa cells, 100 nM, 6 hours. Type of assay: cell-based. The protocol:
The transcription factor plate array assay kit was obtained from Signosis Inc (USA). Briefly, 2×10^6 HeLa cells were treated with 100 nM 16 and incubated for 6 hours before extracting the nuclear protein and carrying out the TF plate array assay. The assay was carried out following the manufacturer's protocol. In the case of each transcription factor, the RLU value obtained for the cells treated with 16 was deducted from the respective values obtained for the untreated cells to obtain the differences in TF activation/inhibition.

The test system of assay [1] is U138-MG (Glioblastoma) HIF++. The experiment in a line: MTT cytotoxicity assay, U138-MG. Type of assay: cell-based. The following applies: Homo sapiens, 72 hour incubation. The procedure: as §1, §2

The term IC50 denotes the concentration at which inhibition is half-maximal. A lower IC50 goes with greater potency in that assay. Take `COc1cc2c(cc1OCCCC(=O)Nc1cc(C(=O)Nc3ccc(-c4cc(C)c(C(=O)Nc5ccccc5)s4)nc3)n(C)c1)N=C[C@@H]1CCCCN1C2=O` [Compound 16, (S)-4-(4-((2-Methoxy-12-oxo-6a,7,8,9,10,12-hexahydrobenzo[e]pyrido[1,2-a] [1,4]diazepin-3-yl)oxy)butanamido)-1-methyl-N-(6-(4-methyl-5-(phenyl-carbamoyl)thiophen-2-yl)pyridin-3-yl)-1H-pyrrole-2-carboxamide]: the half-inhibitory concentration (IC50) was 0.302 nM in the assay with SW620 (Colorectal); 0.142 nM in the assay on SW-48 (Colorectal); 1.6 nM with LIM1215 (Colorectal); 0.029 nM with A431 (Skin) HIF+; 0.261 nM in assay [1]. For the same compound, the “preferred binding site (sequence motif)” value in the assay on MS1 DNA fragment (R is preferably a G or C, X is any base) is on record as “XRXXRRXX”. In addition, the “DNA footprint / binding pattern on the MS1 DNA sequence” value in the assay with MS1 DNA fragment (overnight incubation of ligand-DNA complexes) is given as “only two preferred sites were observed”. Besides, the “major transcription factors down-regulated” value with transcription factors was “HIF1 (hypoxia-inducible factor 1), NF-1 (Neurofibromatosis type 1), FOXG1 and NF-κB”.

For the compound `COc1cc2c(cc1OCCCC(=O)Nc1cc(C(=O)Nc3ccc(-c4cc(C(=O)Nc5ccccc5)n(C)c4)cc3)n(C)c1)N=C[C@@H]1CCCCN1C2=O` [Compound 22, (S)-4-(4-((2-Methoxy-12-oxo-6a,7,8,9,10,12-hexahydrobenzo[e]pyrido[1,2-a][1,4]diazepin-3-yl)oxy)butanamido)-1-methyl-N-(4-(1-methyl-5-(phenylcarbamoyl)-1H-pyrrol-3-yl)phenyl)-1H-pyrrole-2-carboxamide], the half-maximal inhibitory concentration (IC50) in the assay on SW620 (Colorectal) was determined as 0.291 nM; with SW-48 (Colorectal), 0.093 nM; in the assay on LIM1215 (Colorectal) it was 0.899 nM; in the assay with A431 (Skin) HIF+, 0.055 nM; in assay [1], 1.62 nM. Also, in the assay with LIM1215 (Colorectal) (HIF1 negative cell-line LIM1215), the “potency relative to 16” value is “two-fold more potent than 16”.
